{"source": "paper PMC6387369", "about": "“Carbonic Anhydrase Inhibitors of Different Structures Dilate Pre-Contracted Porcine Retinal Arteries” (International Journal of Molecular Sciences, 2019)", "key": {"porcine retinal arteries": {"test_system": "porcine retinal arteries", "assay": "small vessel myography of wall tension in isolated retinal artery segments pre-contracted with U-46619", "format": "cell-based", "settings": "for peak wall tension after U-46619: 10^−6 M; for EC50: Sus scrofa, best fit to concentration-response curves, arteries pre-contracted with 10^−6 M U-46619, read-out: mean EC50 of vasodilation; for vasodilation in a single representative experiment, percent of maximum contraction / mean dilation as percentage of the maximum contraction induced by U-46619: single dose of 10^−3 M; for vasodilation in a single representative experiment, percent of maximum contraction: pre-contracted with 10^−6 M U-46619; for mean dilation as percentage of the maximum contraction induced by U-46619: mean ± SEM; for wall tension reached after dilation: final level (slower phase for compound 4)"}, "hCA IV": {"target": "T1, hCA IV (Homo sapiens, UniProt P22748)", "T1 construct": "made in house", "T1 sequence (P22748 19-312)": "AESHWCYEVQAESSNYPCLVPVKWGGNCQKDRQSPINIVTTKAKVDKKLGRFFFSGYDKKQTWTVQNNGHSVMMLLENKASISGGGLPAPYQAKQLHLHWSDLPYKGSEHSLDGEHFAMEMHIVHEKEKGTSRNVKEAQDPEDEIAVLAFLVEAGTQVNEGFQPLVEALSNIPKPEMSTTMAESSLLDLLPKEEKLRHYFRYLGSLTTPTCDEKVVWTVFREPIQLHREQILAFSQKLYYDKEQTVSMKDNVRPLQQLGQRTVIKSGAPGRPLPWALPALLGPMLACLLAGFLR", "assay": "stopped flow CO2 hydrase assay, hCA IV", "format": "biochemical", "settings": "mean from 3 assays, errors ± 5%–10%"}, "hCA IX": {"target": "T2, hCA IX (Homo sapiens, UniProt Q16790)", "T2 construct": "made in house", "assay": "stopped flow CO2 hydrase assay, hCA IX", "format": "biochemical", "settings": "mean from 3 assays, errors ± 5%–10%"}, "hCA II [1]": {"target": "T3, hCA II (Homo sapiens, UniProt P00918)", "T3 construct": "made in house", "assay": "stopped flow CO2 hydrase assay, hCA II", "format": "biochemical", "settings": "mean from 3 assays, errors ± 5%–10%"}, "hCA I [2]": {"target": "T4, hCA I (Homo sapiens, UniProt P00915)", "T4 construct": "made in house", "T4 sequence (P00915 whole entry)": "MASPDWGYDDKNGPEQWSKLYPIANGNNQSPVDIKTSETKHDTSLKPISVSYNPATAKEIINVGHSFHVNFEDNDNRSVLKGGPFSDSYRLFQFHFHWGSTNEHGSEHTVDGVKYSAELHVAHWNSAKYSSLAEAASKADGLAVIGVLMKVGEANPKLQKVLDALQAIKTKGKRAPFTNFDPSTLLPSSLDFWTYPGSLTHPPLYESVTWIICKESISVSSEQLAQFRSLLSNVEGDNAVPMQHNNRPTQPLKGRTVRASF", "assay": "stopped flow CO2 hydrase assay, hCA I", "format": "biochemical", "settings": "mean from 3 assays, errors ± 5%–10%"}, "hCA II [3]": {"target": "T3, hCA II", "parameters": "method as in PMID 16996620", "settings": "stopped flow; cited from earlier work"}, "hCA I [4]": {"target": "T4, hCA I", "settings": "stopped flow; cited from earlier work"}, "hCA XII": {"target": "T5, hCA XII (Homo sapiens, UniProt O43570)", "T5 construct": "made in house", "T5 sequence (O43570 25-354)": "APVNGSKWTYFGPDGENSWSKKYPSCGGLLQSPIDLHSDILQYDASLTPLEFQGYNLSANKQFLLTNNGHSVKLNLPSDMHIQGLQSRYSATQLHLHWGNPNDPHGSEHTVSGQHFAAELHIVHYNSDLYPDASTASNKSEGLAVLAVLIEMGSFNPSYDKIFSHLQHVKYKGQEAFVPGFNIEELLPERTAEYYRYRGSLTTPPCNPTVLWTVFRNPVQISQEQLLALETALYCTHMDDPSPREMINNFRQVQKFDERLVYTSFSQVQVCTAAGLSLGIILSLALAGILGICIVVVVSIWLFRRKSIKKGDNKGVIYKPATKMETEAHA", "assay": "stopped flow CO2 hydrase assay, hCA XII", "format": "biochemical"}}, "note": "Like-named read-outs stand apart in the source and are kept apart here.", "data": [{"smiles": "CCCCC[C@H](O)/C=C/[C@@H]1[C@@H](C/C=C\\CCCC(=O)O)[C@H]2CO[C@@H]1C2", "note": "[Compound U-46619, 9,11-dideoxy-9 α,11α methanoepoxy prostaglandin F2α, reference compound]", "values": [{"measurement": "peak wall tension after U-46619", "setting": "porcine retinal arteries; Figure 2A, baseline 0.4 mN/mm", "value": "about 1.75 mN/mm"}, {"measurement": "peak wall tension after U-46619", "setting": "porcine retinal arteries; Figure 3A, baseline 0.6 mN/mm", "value": 2.4, "unit": "mN/mm"}, {"measurement": "peak wall tension after U-46619", "setting": "porcine retinal arteries; Figure 3B, baseline about 0.38 mN/mm", "value": 1.63, "unit": "mN/mm"}, {"measurement": "peak wall tension after U-46619", "setting": "porcine retinal arteries; Figure 4A, baseline 1.54 mN/mm", "value": 3.38, "unit": "mN/mm"}, {"measurement": "peak wall tension after U-46619", "setting": "porcine retinal arteries; Figure 4B, baseline 0.95 mN/mm", "value": 2.21, "unit": "mN/mm"}]}, {"smiles": "NS(=O)(=O)c1nnc(NS(=O)(=O)c2ccccc2)s1", "note": "[Compound 1, Benzolamide, reference compound]", "values": [{"measurement": "Ki", "setting": "hCA IV", "value": 0.012, "unit": "µM"}, {"measurement": "final dilation when added after DZA dilation had reached a steady level", "setting": "porcine retinal arteries; 10^−3 M BZA added on top of 10^−3 M DZA, one vessel (Figure 2B)", "value": 100, "unit": "%"}, {"measurement": "EC50", "setting": "porcine retinal arteries", "value": 84.3, "unit": "µM"}, {"measurement": "vasodilation in a single representative experiment, percent of maximum contraction", "setting": "porcine retinal arteries; one vessel", "value": "almost complete inhibition"}, {"measurement": "mean dilation as percentage of the maximum contraction induced by U-46619", "setting": "porcine retinal arteries", "value": "78.4% ± 8.5%"}]}, {"smiles": "C#CCN(CC#C)CCc1ccc(S(N)(=O)=O)cc1", "note": "[Compound 3]", "values": [{"measurement": "Ki", "setting": "hCA IX", "value": 0.0557, "unit": "µM"}, {"measurement": "Ki", "setting": "hCA II [1]", "value": 0.0058, "unit": "µM"}, {"measurement": "Ki", "setting": "hCA I [2]", "value": 4.01, "unit": "µM"}, {"measurement": "EC50", "setting": "porcine retinal arteries", "value": 188, "unit": "µM"}, {"measurement": "vasodilation in a single representative experiment, percent of maximum contraction", "setting": "porcine retinal arteries; one vessel", "value": 91, "unit": "%"}, {"measurement": "mean dilation as percentage of the maximum contraction induced by U-46619", "setting": "porcine retinal arteries", "value": "102.2% ± 3.7%"}]}, {"smiles": "CCN[C@H]1C[C@H](C)S(=O)(=O)c2sc(S(N)(=O)=O)cc21", "note": "[Compound 2, Dorzolamide, reference compound]", "values": [{"measurement": "vasodilation in a single representative experiment, percent of maximum contraction", "setting": "porcine retinal arteries; one vessel", "value": 33, "unit": "%"}, {"measurement": "mean dilation as percentage of the maximum contraction induced by U-46619", "setting": "porcine retinal arteries", "value": "69.7% ± 5.7%"}]}, {"smiles": "C#CCOc1ccc2ccc(=O)oc2c1", "note": "[Compound 5]", "values": [{"measurement": "Ki", "setting": "hCA IV", "value": 0.0764, "unit": "µM"}, {"measurement": "Ki", "setting": "hCA II [3]", "value": "> 10", "unit": "µM"}, {"measurement": "Ki", "setting": "hCA I [4]", "value": "> 10", "unit": "µM"}, {"measurement": "times less effective than 4 against hCA XII", "setting": "hCA XII; ratio of KI values versus compound 4", "value": 12.9, "unit": "times"}, {"measurement": "wall tension reached after dilation", "setting": "porcine retinal arteries; 10^−3 M, one vessel", "value": 0.77, "unit": "mN/mm"}, {"measurement": "EC50", "setting": "porcine retinal arteries", "value": 4.12, "unit": "µM"}, {"measurement": "vasodilation in a single representative experiment, percent of maximum contraction", "setting": "porcine retinal arteries; one vessel", "value": 140, "unit": "%"}, {"measurement": "mean dilation as percentage of the maximum contraction induced by U-46619", "setting": "porcine retinal arteries", "value": "116.5% ± 1.7%"}]}, {"smiles": "C#CCNc1ccc2c(C)cc(=O)oc2c1", "note": "[Compound 6]", "values": [{"measurement": "Ki", "setting": "hCA IX", "value": 0.474, "unit": "µM"}, {"measurement": "Ki", "setting": "hCA II [1]", "value": "> 10", "unit": "µM"}, {"measurement": "Ki", "setting": "hCA XII; mean from 3 assays, errors ± 5%–10%", "value": 0.0445, "unit": "µM"}, {"measurement": "Ki", "setting": "hCA I [2]", "value": "> 10", "unit": "µM"}, {"measurement": "EC50", "setting": "porcine retinal arteries", "value": 101, "unit": "µM"}, {"measurement": "vasodilation in a single representative experiment, percent of maximum contraction", "setting": "porcine retinal arteries; one vessel", "value": 96.8, "unit": "%"}, {"measurement": "mean dilation as percentage of the maximum contraction induced by U-46619", "setting": "porcine retinal arteries", "value": "99.5% ± 1.2%"}]}, {"smiles": "C#CCOc1ccc2oc(=O)ccc2c1", "note": "[Compound 4]", "values": [{"measurement": "wall tension after initial very fast phase of dilation", "setting": "porcine retinal arteries; 10^−3 M, one vessel, peak constriction 1.63 mN/mm (Figure 3B)", "value": "about 0.66 mN/mm"}, {"measurement": "wall tension reached after dilation", "setting": "porcine retinal arteries; 10^−3 M, one vessel", "value": "about 0.36 mN/mm"}, {"measurement": "EC50", "setting": "porcine retinal arteries", "value": 134, "unit": "µM"}, {"measurement": "vasodilation in a single representative experiment, percent of maximum contraction", "setting": "porcine retinal arteries; one vessel", "value": 101, "unit": "%"}, {"measurement": "mean dilation as percentage of the maximum contraction induced by U-46619", "setting": "porcine retinal arteries", "value": "98.8% ± 6.1%"}]}]}
